Test results published in patent publication US8722052B2, “Vaccinia virus protein A46 peptide and use thereof” (priority 2008, dated 2014).
Where “and” joins values, the source holds several entries; their conditions need not be identical. Equal entries are not always repeated. Entries after “also recorded” stand apart in the source; their conditions may differ. Square brackets hold non-standard residues; d marks the D form. Ends that are not written are not given here.

Assays:
TLR4 = assay: LPS-induced TNFα in primary human PBMC, ELISA; assay type: cell-based; settings: peptide 1, 5 or 25 μM 1 h before 10 ng/ml LPS, 6 h
Chain of TLR4 (O00206 24-839): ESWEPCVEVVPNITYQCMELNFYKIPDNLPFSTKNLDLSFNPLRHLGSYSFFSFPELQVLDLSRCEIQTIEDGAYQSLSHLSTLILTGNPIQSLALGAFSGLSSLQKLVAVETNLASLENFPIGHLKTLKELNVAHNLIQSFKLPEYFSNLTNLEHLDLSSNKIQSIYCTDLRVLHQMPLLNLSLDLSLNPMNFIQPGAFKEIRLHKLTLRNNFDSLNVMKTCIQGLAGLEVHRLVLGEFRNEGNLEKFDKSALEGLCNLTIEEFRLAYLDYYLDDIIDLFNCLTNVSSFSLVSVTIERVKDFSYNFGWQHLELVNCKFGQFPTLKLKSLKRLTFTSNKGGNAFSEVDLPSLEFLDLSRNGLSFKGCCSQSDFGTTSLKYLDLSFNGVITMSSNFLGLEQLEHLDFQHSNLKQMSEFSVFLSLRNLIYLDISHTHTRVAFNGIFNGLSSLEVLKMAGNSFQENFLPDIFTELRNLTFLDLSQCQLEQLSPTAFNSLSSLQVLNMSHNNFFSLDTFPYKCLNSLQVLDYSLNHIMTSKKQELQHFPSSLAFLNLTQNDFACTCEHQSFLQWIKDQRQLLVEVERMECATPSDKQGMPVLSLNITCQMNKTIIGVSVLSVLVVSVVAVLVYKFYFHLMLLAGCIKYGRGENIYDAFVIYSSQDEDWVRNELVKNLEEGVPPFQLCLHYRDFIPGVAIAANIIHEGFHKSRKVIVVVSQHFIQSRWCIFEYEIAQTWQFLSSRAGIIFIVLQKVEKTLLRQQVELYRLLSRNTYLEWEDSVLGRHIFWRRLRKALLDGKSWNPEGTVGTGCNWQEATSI
Chain of TLR4 (Q9Y6Y9 17-160 partner limits assumed): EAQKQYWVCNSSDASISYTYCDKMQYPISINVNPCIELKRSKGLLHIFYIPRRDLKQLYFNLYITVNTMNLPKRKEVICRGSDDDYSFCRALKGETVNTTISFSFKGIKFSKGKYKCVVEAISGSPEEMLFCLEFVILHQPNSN
Procedure: FIGS. 13A and B are bar charts showing the effect of A467 and A464 on LPS-induced TNFα production and on cell viability in primary human cells. Peripheral blood mononuclear cells (PBMCs) were seeded in 96 well plates (1 ×10^6 cells/ml) 24 hours before treatment. A467 (SEQ ID NO. 23) and A464 (SEQ ID NO. 20) were added to the cells at 1, 5 and 25 μM 1 hour before stimulating with 10 ng/ml LPS. The peptides were added into the unstimulated control wells at 25 μM. Supernatants were collected 6 hours after stimulation and assayed for TNFα production by ELISA (A). The cells were assayed for viability by the MTT assay (B). No peptides were added to the control wells (black bars). Data is representative of at least three experiments each performed in triplicate and is expressed as mean±s.d;
FIGS. 14A and B are bar charts showing the comparison of the inhibitory effect of the L- and D-forms of A464 on LPS-induced TNFα in primary human and murine cells. PBMC (1×10^6 cells/ml, (A)) or immortalised murine macrophages (1.5×10^5 cells/ml, (B)) were seeded in 96 well plates 24 hours before treatment. L-form and D-form A464 peptides (with the 9R delivery peptide on the C-terminus, SEQ ID NO. 20) were added to the cells at a concentration of 1, 5 or 25 μM 1 hour before stimulating with 10 ng/ml LPS. Supernatants were collected 6 hours after stimulation and assayed for either human (A) or murine (B) TNFα production by ELISA. No peptides were added to the control wells (black bars). Data is representative of at least three experiments each performed in triplicate and is expressed as mean±s.d;
FIGS. 15A and B are bar charts showing the effect of the D-form A464 peptide with the TAT delivery sequence on LPS induced TNFα in primary human and murine cells. PBMC (A) and immortalised murine macrophages (B) were seeded in 96 well plates 24 hours before treatment. D-form of A467 (SEQ ID NO. 37) and A464 (SEQ ID NO. 36) with the TAT delivery sequence were added to the cells at a concentration of 1, 5 or 25 μM 1 hour before stimulating with 10 ng/ml LPS. The peptides were added into the unstimulated control wells at 25 μM. Supernatants were collected 6 hours after stimulation and assayed for either human (A) or murine (B) TNFα production by ELISA. No peptides were added to the control wells (black bars). Data is representative of at least three experiments each performed in triplicate and is expressed as mean±s.d;
FIGS. 16A and B are bar charts showing the effect of attaching 9R to the N-terminus of A464 on LPS-induced TNFα in primary human and murine cells. Immortalised murine macrophages (A) and PBMC (B) were seeded in 96 well plates 24 hours before treatment. L-form of A467 (SEQ ID NO. 39) and A464 (SEQ ID NO. 38) with the 9R-delivery sequence at the N-terminus were added to the cells at a concentration of 1, 5 or 25 μM 1 hour before stimulating with 10 ng/ml LPS. The peptides were added into the unstimulated control wells at […]. Supernatants were collected 6 hours after stimulation and assayed for either murine (A) or human (B) TNFα production by ELISA. No peptides were added to the control wells (black bars). Data is representative of at least three experiments each performed in triplicate and is expressed as mean±s.d;
FIGS. 17A and B are bar charts showing the effect of the D-form A464 with 9R at the N-terminus on LPS-induced TNFα in primary human and murine cells. Immortalised murine macrophages (A) and PBMC (B) were seeded in 96 well plates 24 hours before treatment. D-form of A467 (SEQ ID NO. 39) and A464 (SEQ ID NO. 38) peptides with the 9R-delivery sequence at N-terminus were added to the cells at a concentration of 1, 5 or 25 μM 1 hour before stimulating with 10 ng/ml LPS. The peptides were added into the unstimulated control wells at 25 μM. Supernatants were collected 6 hours after stimulation and assayed for either murine (A) or human (B) TNFα production by ELISA. No peptides were added to the control wells (black bars). […]

IL-12p40 = assay: LPS-induced serum IL-12p40 in mice, ELISA; assay type: in vivo; settings: female BALB/c mice, serum at 4 hours; for serum IL-12p40 level compared with PBS-treated animals: i.v. 1 μg LPS with 3 mg/kg peptide; for inhibition of LPS-induced serum IL-12p40: i.v. single bolus 1 μg LPS with 3 mg/kg peptide
Procedure: FIG. 30 is a graph showing that A464 inhibits LPS-induced IL-12/23 p40 in vivo. Groups of 5 female BALB/c mice were injected i.v. with a single bolus of one of the following: PBS, 1 μg LPS, 1 μg LPS with 3 mg/kg D-9RN-A464 (SEQ ID NO. 38), 1 μg LPS with 3 mg/kg L-9RN-A464 (SEQ ID NO. 38), or 1 μg LPS with 3 mg/kg L-9RN-A467 (SEQ ID NO. 39). Four hours later, blood was harvested and serum derived. The serum was assayed for IL-12p40 by ELISA. Concentrations are expressed as pg/ml. * p<0.05, *** p<0.001 samples versus LPS. # p<0.01 samples versus PBS.
Cytokine and chemokine production from cells or mouse serum was measured by ELISA using Duoset kits from R&D systems, according to the manufacturer's instructions.
To do this we used a well characterised model of Gram negative sepsis, where mice are injected with LPS and serum cytokines are later analysed by ELISA. […] Mice were injected i.v. with LPS alone, or with peptide in the presence of LPS. Four hours later serum IL-12p40 concentrations were measured. […] Thus peptides based on the 464 sequence (SEQ ID No. 4) have efficacy in vivo. Thus peptides comprising the 464 sequence (SEQ ID No.4) can inhibit LPS induced proinflammatory IL-12p40 in vivo.

Substance: 9RN-A464 (RRRRRRRRRKYSFKLILAEY) [Peptide 9RN-A464]
- inhibition of LPS-induced hTNFα production (TLR4): inhibition was only observed from 5-25 μM
- serum IL-12p40 level compared with PBS-treated animals (IL-12p40; listed as L-9RN-A464, 3 mg/kg): not significantly different from mice receiving only PBS; also recorded: not significantly different from the PBS-treated animals
- inhibition of LPS-induced serum IL-12p40 (IL-12p40): significantly inhibited LPS-induced IL-12p40

Substance: D-9RN-A464 ([dR][dR][dR][dR][dR][dR][dR][dR][dR][dK][dY][dS][dF][dK][dL][dI][dL][dA][dE][dY]) [Peptide D-9RN-A464]
- inhibition of LPS-induced hTNFα production (TLR4): inhibited TNFα only at concentration of 24 μM
- serum IL-12p40 level compared with PBS-treated animals (IL-12p40; 3 mg/kg): not significantly different from mice receiving only PBS; also recorded: not significantly different from the PBS-treated animals
- inhibition of LPS-induced serum IL-12p40 (IL-12p40): significantly inhibited LPS-induced IL-12p40

Substance: KYSFKLILAEYRRRRRRRRR [Peptide A464]
- inhibition of LPS-induced hTNFα production (TLR4): significant inhibition of TLR4 by A464 (SEQ ID No. 20) at 1 μM and 5 μM A464 (SEQ ID No. 20) peptide almost completely blocked hTNFα production
